Data: PubChem BioAssay AID624274 (Broad Institute, 2012)
Values joined by “and” are separate entries in the source; they are usually repeats but may differ in a detail not shown here. Equal values may be shown once.

molecular target: Protein disulfide-isomerase (Homo sapiens) (UniProt P07237); test: PDI inhibitors, insulin turbidity readout, dose response, biochemical, absorbance, cherry-picked samples, set 2 (AID 624274); settings: PDI insulin reduction turbidity, absorbance 650 nm
Sequence (P07237 whole entry, looked up): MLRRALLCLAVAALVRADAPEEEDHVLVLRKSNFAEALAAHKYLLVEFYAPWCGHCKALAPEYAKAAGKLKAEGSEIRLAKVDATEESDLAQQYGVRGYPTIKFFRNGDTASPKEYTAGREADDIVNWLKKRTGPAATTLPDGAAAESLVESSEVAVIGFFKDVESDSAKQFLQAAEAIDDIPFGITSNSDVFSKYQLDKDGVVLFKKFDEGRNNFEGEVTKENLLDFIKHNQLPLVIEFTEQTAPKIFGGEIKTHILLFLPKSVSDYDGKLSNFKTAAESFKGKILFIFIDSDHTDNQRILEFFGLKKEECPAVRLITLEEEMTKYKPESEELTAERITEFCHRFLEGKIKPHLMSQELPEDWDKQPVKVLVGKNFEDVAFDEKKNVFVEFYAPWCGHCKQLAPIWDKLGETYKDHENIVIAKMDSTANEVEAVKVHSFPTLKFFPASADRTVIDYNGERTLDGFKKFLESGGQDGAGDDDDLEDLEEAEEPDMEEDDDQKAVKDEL

| Compound | AC50 |
| --- | --- |
| O=S(=O)(c1ccccc1)N1N=C(c2ccc(O)cc2)CC1c1ccco1 (stereo not drawn) | 19.5 µM |
| O=c1c(OC2OC(CO)C(O)C(O)C2O)c(-c2ccc(O)c(O)c2)oc2cc(O)cc(O)c12 (stereo not drawn) | 8.92 µM |
| O=C(CCC1CCCCC1)NCCN1C2=NC[C@H](Cc3ccc(O)cc3)N2C[C@H]1Cc1ccc(O)cc1 | 19.5 µM |
| Cc1cc(O)cc2c1C1CCC3(C)C(=O)CCC3C1C=C2 (stereo not drawn) | 19.5 µM |
| O=c1c(O[C@@H]2O[C@H](CO)[C@@H](O)[C@H](O)[C@H]2O)c(-c2ccc(O)cc2)oc2cc(O)cc(O)c12 | 19 µM |
| Cn1cnnc1Sc1ccc(/C=C/C(=O)c2ccc(O)cc2)cc1[N+](=O)[O-] | 0.422 µM |
| C[C@H](CO)N1C[C@H](C)[C@H](CN(C)S(=O)(=O)c2ccc(F)cc2)Oc2ccc(NC(=O)Cc3cn(C)c4ccccc34)cc2C1=O | 19.5 µM |
| CCSc1nnc([C@H](Cc2c[nH]c3ccccc23)NC(=O)OC(C)(C)C)o1 | 19.5 µM |
| C[C@@H]1CN([C@@H](C)CO)C(=O)c2cc(NC(=O)Cc3cn(C)c4ccccc34)ccc2O[C@H]1CN(C)S(=O)(=O)c1ccc(F)cc1 | 2.08 µM |
| C[C@@H]1O[C@@H](O[C@H]2[C@H](O)[C@@H](O)[C@H](Oc3c(-c4ccc(O)c(O)c4)oc4cc(O)cc(O)c4c3=O)O[C@@H]2CO)[C@H](O)[C@H](O)[C@H]1O | 4.28 µM |
| COc1ccc(C(=O)Nc2ccccc2C(=O)NCc2ccco2)cc1 | 0.819 µM |
| CCN1CC2(COC(=O)c3ccccc3N)CCC(OC)C34C5CC6C(OC)CC(O)(C5C6OC)C(O)(C(OC)C23)C14 (stereo not drawn) | 19.5 µM |
| CC(C)Sc1nnc([C@H](Cc2c[nH]c3ccccc23)NC(=O)OC(C)(C)C)o1 | 19.5 µM |
| C[C@H](CO)N1C[C@H](C)[C@@H](CN(C)S(=O)(=O)c2ccccc2)Oc2ccc(NC(=O)Cc3cn(C)c4ccccc34)cc2C1=O | 0.125 µM |
| C[C@@H]1O[C@@H](OC[C@@H]2O[C@H](Oc3c(-c4ccc(O)cc4)oc4cc(O)cc(O)c4c3=O)[C@@H](O)[C@H](O)[C@H]2O)[C@H](O)[C@H](O)[C@H]1O | 3.51 µM |
| COc1ccc2c(CC(=O)OCC(=O)N(C)c3c(N)n(Cc4ccccc4)c(=O)[nH]c3=O)coc2c1 | 5.45 µM |
| C[C@@H]1CN([C@@H](C)CO)C(=O)c2cccc(NS(C)(=O)=O)c2O[C@H]1CN(C)Cc1ccc(Oc2ccccc2)cc1 | 19.5 µM and 7.04 µM |
| C[C@@H]1O[C@@H](O[C@@H]2C(=O)c3c(O)cc(O)cc3O[C@H]2c2ccc(O)c(O)c2)[C@H](O)[C@H](O)[C@H]1O | 10.2 µM |
| Cc1noc(C)c1S(=O)(=O)Nc1ccc2c(c1)CC(=O)N([C@H](C)CO)C[C@H](C)[C@H](CN(C)S(=O)(=O)c1ccc(F)cc1)O2 | 19.5 µM and 16.9 µM |
| Cc1cccn2c(CN(C)C3CCCc4ccccc43)c(C(=O)N3CCOCC3)nc12 (stereo not drawn) | 19.5 µM |
| CC(C)(C)OC(=O)N[C@@H](Cc1c[nH]c2ccccc12)c1nnc(SCC(N)=O)o1 | 19.5 µM |
| NNC(=O)c1cc(-c2ccc(O)cc2)nc2ccc(Br)cc12 | 19.5 µM |
| CCOC(=O)C1(CCOc2ccccc2)CCN(Cc2ccc(O)c(Cl)c2)CC1 | 0.599 µM |
| C[C@H](CO)N1C[C@H](C)[C@H](CN(C)Cc2ccccc2)Oc2ccc(NC(=O)Nc3ccccc3)cc2CC1=O | 19.5 µM |
| COc1ccc(/C=C2\CN(Cc3ccccc3)C/C(=C\c3ccc(OC)c(O)c3)C2=O)cc1O | 2.98 µM |
| Cc1n[nH]c(=O)c2c(NC(=O)CSc3nnnn3-c3ccc(O)cc3)oc(C)c12 | 19.5 µM |

| Compound | AC50 |
| --- | --- |
| C[C@H]1CN([C@@H](C)CO)C(=O)Cc2cc(NC(=O)Nc3ccccc3)ccc2O[C@H]1CN(C)Cc1ccccc1 | 10.3 µM |
| Cc1ccc2nc(N3CCN(Cc4nnnn4C4CCCC4)CC3)c(C#N)cc2c1 | 4.05 µM |
| O=C(c1c(O)cc(O)cc1O)C1c2c(cc(O)c3c2O[C@H](c2ccc(O)cc2)[C@@H](O)C3)OC1c1ccc(O)cc1 (stereo partly drawn) | 19.5 µM |
| CCOC(=O)c1c(CNCCN(CC)CC)n(C)c2cc(Br)c(OC)cc12 | 0.376 µM |
| C[C@@H]1O[C@@H](OC[C@H]2O[C@@H](Oc3c(-c4ccc(O)c(O)c4)oc4cc(O)cc(O)c4c3=O)[C@H](O)[C@@H](O)[C@@H]2O)[C@H](O)[C@H](O)[C@H]1O | 7.62 µM |
| CN(C)C(=O)CSc1nnc([C@H](Cc2c[nH]c3ccccc23)NC(=O)OC(C)(C)C)o1 | 19.5 µM |
| COc1ccc(C2c3ccc(O)cc3Oc3ncn(CCN4CCOCC4)c(=N)c32)cc1OC (stereo not drawn) | 15.5 µM |
| COc1cc(-c2oc3cc(O)cc(O)c3c(=O)c2O[C@@H]2O[C@H](COC3O[C@@H](C)[C@H](O)[C@@H](O)[C@H]3O)[C@@H](O)[C@H](O)[C@H]2O)ccc1O (stereo partly drawn) | 7.96 µM |
| C[C@H]1CN([C@@H](C)CO)C(=O)c2cc(NC(=O)Cc3cn(C)c4ccccc34)ccc2O[C@@H]1CN(C)S(=O)(=O)c1ccc(F)cc1 | 19.5 µM |
| COc1ccccc1N1CCN(C(=O)C(=O)N/N=C/c2cccc(O)c2)CC1 | 19.5 µM |
| O=C(/C=C/c1ccc(NC(=O)c2ccccc2-c2ccccc2C(=O)O)cc1)c1ccccc1 | 11.4 µM |
| O=C(c1ccco1)N1CCN(Cc2cc(=O)oc3cc(O)ccc23)CC1 | 19.5 µM |
| COc1cccc2c1C(=O)c1c(O)c3c(c(O)c1C2=O)CC(O)(C(C)=NO)CC3OC1CC(N)C(O)C(C)O1 (stereo not drawn) | 16.9 µM |
| C[C@H]1CN([C@@H](C)CO)C(=O)c2cc(NC(=O)Cc3cn(C)c4ccccc34)ccc2O[C@H]1CN(C)S(=O)(=O)c1ccc(F)cc1 | 19.5 µM |
| COC(=O)CC1OCC=C2CN3CCC45C6=CC(=O)C(=O)C([N+](=O)[O-])=C6NC4C1C2CC35 (stereo not drawn) | 8.03 µM |
| C[C@H](CO)N1C[C@H](C)[C@@H](CN(C)Cc2ccc(Oc3ccccc3)cc2)Oc2c(NS(C)(=O)=O)cccc2C1=O | 19.5 µM |
| C[C@@H]1O[C@@H](Oc2c(-c3ccc(O)c(O)c3)oc3cc(O)cc(O)c3c2=O)[C@H](O)[C@H](O)[C@H]1O | 2.48 µM and 5.59 µM |
| Cc1noc(C)c1S(=O)(=O)Nc1ccc2c(c1)CC(=O)N([C@@H](C)CO)C[C@@H](C)[C@H](CN(C)S(=O)(=O)c1ccc(F)cc1)O2 | 19.5 µM |
| CC(Cc1ccccc1Sc1ccccc1O)N(C)C (stereo not drawn) | 15.9 µM |
| COc1cccc(NS(=O)(=O)c2ccc3c(c2)C2C=CCC2C(c2ccc(C(=O)O)cc2)N3)c1 (stereo not drawn) | 15.8 µM |
| COC1/C=C/C=C(\C)Cc2cc(O)c(Cl)c(c2)N(C)C(=O)CC(OC(=O)C(C)C)C2(C)OC2C(C)C2CC1(O)NC(=O)O2 (stereo not drawn) | 9.59 µM |
| CCN1C[C@]2(COC(=O)c3ccccc3N)CC[C@H](OC)C34[C@@H]5C[C@H]6[C@H](OC)[C@@H]5[C@](O)(C[C@@H]6OC)[C@@](O)([C@H]13)[C@@H](OC)[C@@H]42 | 19.5 µM |
| CCc1cc(OCCCCNCc2ccccc2)ccc1Cl | 10.6 µM |
| Cc1ccc(S(=O)(=O)CCC(=O)c2ccc(O)cc2O)cc1 | 15.6 µM |
| Cc1noc(C)c1S(=O)(=O)Nc1ccc2c(c1)CC(=O)N([C@@H](C)CO)C[C@H](C)[C@H](CN(C)S(=O)(=O)c1ccc(F)cc1)O2 | 19.5 µM |
| CC[C@]12c3[nH]c4cc(-c5ccco5)ccc4c3CCN1C(=O)[C@@H](CC(=O)NCCCOC)C[C@@H]2C(=O)N1CCN(C(=O)c2ccco2)CC1 | 16.7 µM |

| Compound | AC50 |
| --- | --- |
| Cc1c(O)ccc2c(CN3CCN(CCO)CC3)cc(=O)oc12 | 8.66 µM |
| Cc1c(O)ccc2c(CC(=O)N[C@@H](Cc3c[nH]c4ccccc34)C(=O)O)cc(=O)oc12 | 6.76 µM |
| C/C=C(\C)C(=O)NCCN1C2=NC[C@H](Cc3ccc(O)cc3)N2C[C@H]1Cc1ccc(O)cc1 | 15.4 µM |
| CCOC(=O)c1c(CN2CCN(CCO)CC2)n(-c2ccccc2)c2cc(Br)c(O)cc12 | 0.61 µM |
| COc1ccc(N2CCN(CC(=O)c3ccc(O)c(C)c3O)CC2)cc1 | 19.5 µM |
| CCOC(=O)C1(CCOc2ccccc2)CCN(Cc2cc(OC)c(O)cc2Cl)CC1 | 6.03 µM |
| CCOc1cc(N2CCOCC2)c(OCC)cc1NC(=O)COC(=O)[C@H](Cc1c[nH]c2ccccc12)NC(C)=O | 19.5 µM |
| O=c1c(O[C@H]2O[C@@H](CO)[C@H](O)[C@@H](O)[C@@H]2O)c(-c2ccc(O)cc2)oc2cc(O)cc(O)c12 | 0.0155 µM |
| Oc1ccc(/C=C/c2nc(-c3ccccc3O)n(-c3ccccc3)n2)cc1 | 18.8 µM |
| C[C@@H]1CN([C@H](C)CO)C(=O)c2cccc(NS(C)(=O)=O)c2O[C@H]1CN(C)Cc1ccc(Oc2ccccc2)cc1 | 18.8 µM |
| C[C@@H]1O[C@@H](O[C@H]2[C@H](O)[C@@H](O)[C@H](Oc3c(-c4ccc(O)cc4)oc4cc(O)cc(O)c4c3=O)O[C@@H]2CO)[C@H](O)[C@H](O)[C@H]1O | 6.92 µM |
| O=C1NC[C@H](Cc2ccccc2)N(C[C@H]2CCCN2C[C@H](Cc2ccccc2)N2C[C@H](Cc3ccc(O)cc3)N(CCc3ccccc3)C(=O)C2=O)C1=O | 6.5 µM |
| Cc1noc(C)c1S(=O)(=O)Nc1ccc2c(c1)CC(=O)N([C@H](C)CO)C[C@H](C)[C@H](CN(C)S(=O)(=O)c1ccccc1)O2 | 19.5 µM |
| O=C1C[C@@H](c2ccc(O[C@@H]3O[C@H](CO)[C@@H](O)[C@H](O)[C@H]3O)cc2)Oc2cc(O)ccc21 | 15.6 µM |
| C[C@]12CC[C@@H]3c4ccc(O[C@@H]5O[C@H](C(=O)O)[C@@H](O)[C@H](O)[C@H]5O)cc4CC[C@H]3[C@@H]1C[C@@H](O)[C@@H]2O | 15.7 µM |
| COc1cc2cc(C(=O)N3CC(COS(C)(=O)=O)c4ccc(O)cc43)[nH]c2c(OC)c1OC (stereo not drawn) | 18 µM |
| O=C(NC(Cc1ccc(O)cc1)C(=O)N=Nc1c(O)[nH]c2ccccc12)c1ccccc1 (stereo not drawn) | 19.5 µM |
| C[C@H](CO)N1C[C@H](C)[C@@H](CN(C)S(=O)(=O)c2ccc(F)cc2)Oc2ccc(NC(=O)Cc3cn(C)c4ccccc34)cc2C1=O | 19.5 µM |
| CC[C@]12c3[nH]c4cc(-c5ccco5)ccc4c3CCN1C(=O)[C@@H](CC(=O)NCc1ccc(OC)c(OC)c1)C[C@@H]2C(=O)N1CCN(C(=O)c2ccco2)CC1 | 4.25 µM |
| CCN1C(=O)C2C(c3ccccc3F)NC(Cc3ccc(O)cc3)(C(=O)OC)C2C1=O (stereo not drawn) | 10.2 µM |
| O=C(O)C1C(c2ccccc2)C(C(=O)Oc2ccc(O)cc2)C1c1ccccc1 (stereo not drawn) | 14.7 µM |
| O=C1NC[C@H](Cc2ccc(O)cc2)N(CC2CCCCC2)C1=O | 19.5 µM |
| CCN(CC)CCNC(=O)C(C(=O)c1ccccc1)n1ccccc1=O (stereo not drawn) | 2.16 µM |
| C[C@H]1CN([C@@H](C)CO)C(=O)c2cccc(NS(C)(=O)=O)c2O[C@@H]1CN(C)Cc1ccc(Oc2ccccc2)cc1 | 19.5 µM |
| C[C@@H]1O[C@@H](Oc2c(-c3cc(O)c(O)c(O)c3)oc3cc(O)cc(O)c3c2=O)[C@H](O)[C@H](O)[C@H]1O | 9.8 µM |
| CN(C)S(=O)(=O)c1ccc(Cl)c(NC(=O)CSc2nnnn2-c2ccc(O)cc2)c1 | 19.5 µM |
